The values that follow are results of earlier work, collected in patent US7378418B2, “Azabicyclic heterocycles as cannabinoid receptor modulators” (Bristol-Myers Squibb Company, priority 2003, dated 2008).

For data set [1] the following is noted: chronic administration for two weeks (Hildebrandt et al. 2003).
Another data set deals with human subjects. The following applies: 16 week trial period, published Phase IIb data.

For `Cc1c(C(=O)NN2CCCCC2)nn(-c2ccc(Cl)cc2Cl)c1-c1ccc(I)cc1` [AM-251], the body weight result in data set [1] is on record as “substantial body weight reduction”.
On to `Cc1c(C(=O)NN2CCCCC2)nn(-c2ccc(Cl)cc2Cl)c1-c1ccc(Cl)cc1` [SR-141716], for which, in the data set with human subjects, the body weight entry is “dose-dependently reduced body weight”.
